US20170114049A1, “2,5-DISUBSTITUTED CYCLOPENTANE CARBOXYLIC ACIDS FOR THE TREATMENT OF RESPIRATORY TRACT DISEASES” (BAYER PHARMA AKTIENGESELLSCHAFT, priority 2014, published 2017)

How the values were obtained:
Format in all cases: biochemical
MMP-10 = target: T1, MMP-10 (Homo sapiens, UniProt P09238); assay: In vitro MMP-10 inhibition test
T1 construct: purchased R&D Systems 910-MP
Description: (§1) The MMP-mediated amidolytic cleavage of a suitable peptide substrate leads to an increase in fluorescent light here too. The signal intensity of the fluorescent light is directly proportional to the enzyme activity. The active concentration of a test compound at which half the enzyme is inhibited (50% signal intensity of the fluorescent light) is reported as the […].
(§2) Recombinant MMP-10 (from R&D Systems, 910-MP) is chemically activated in accordance with the manufacturer's instructions using APMA. 1 μl of the test compound to be analysed (as a solution in DMSO, suitable concentrations, for example, 1 nM to 30 μM) is pipetted into 24 μl of activated enzyme (final concentration, for example, 2 nM) in reaction buffer (50 mM Tris/HCl pH 7.5, 10 mM CaCl2, 150 mM NaCl, 0.05% Brij®-35) in a white 384-hole microtiter plate (MTP). The enzymatic reaction is started by adding the intramolecularly quenched Mca-Arg-Pro-Lys-Pro-Val-Glu-Nval-Trp-Arg-Lys(Dnp)-NH2 substrate (final concentration, for example, 10 μM; R&D Systems, ES-002), so as to result in a total test volume of 50 μl. The course of the MMP-10 reaction is measured by measuring the fluorescence intensity (excitation 320 nm, emission 410 nm) over a suitable period of time (for example over 120 min at a temperature of 32° C.).

MMP-16 = target: T2, MMP-16 (Homo sapiens, UniProt P51512); assay: In vitro MMP-16 inhibition test
T2 construct: purchased R&D Systems 1785-MP
Description: as §1
Recombinant MMP-16 (from R&D Systems, 1785-MP) is enzymatically activated in accordance with the manufacturer's instructions using recombinant furin (from R&D Systems, 1503-SE). 1 μl of the test compound to be analysed (as a solution in DMSO, suitable concentrations e.g. 1 nM to 30 μM) is pipetted into 24 μl of activated enzyme (final concentration e.g. 1 nM) in reaction buffer (50 mM Tris/HCl pH 7.5, 10 mM CaCl2, 150 mM NaCl, 0.05% Brij®-35) in a white 384-hole microtiter plate (MTP). The enzymatic reaction is started by adding the intramolecularly quenched Mca-Lys-Pro-Leu-Gly-Leu-Dpa(Dnp)-Ala-Arg-NH2 substrate (final concentration, for example, 5 μM; R&D Systems, ES-010), so as to result in a total test volume of 50 μl. The course of the MMP-16 reaction is measured by measuring the fluorescence intensity (excitation 320 nm, emission 410 nm) over a suitable period of time (for example over 120 min at a temperature of 32° C.).

MMP-13 = target: T3, MMP-13 (Homo sapiens, UniProt P45452); assay: In vitro MMP-13 inhibition test
T3 construct: purchased R&D Systems 511-MP
Description: as §1
as §2, with “Recombinant MMP-13” for “Recombinant MMP-10”, “Systems, 511-MP)” for “Systems, 910-MP)”, “example, 0.1” for “example, 2”, “quenched Mca-Pro-Leu-Gly-Leu-Dpa(Dnp)-Ala-Arg-NH2” for “quenched Mca-Arg-Pro-Lys-Pro-Val-Glu-Nval-Trp-Arg-Lys(Dnp)-NH2”, “Systems, ES-001),” for “Systems, ES-002),”, “the MMP-13” for “the MMP-10”

MMP-9 = target: T4, MMP-9 (Homo sapiens, UniProt P14780); assay: In vitro MMP-9 inhibition test
T4 construct: purchased R&D Systems 911-MP

MMP-2 = target: T5, MMP-2 (Homo sapiens, UniProt P08253); assay: In vitro MMP-2 inhibition test
T5 construct: purchased R&D Systems 902-MP
T5 sequence (P08253 110-660): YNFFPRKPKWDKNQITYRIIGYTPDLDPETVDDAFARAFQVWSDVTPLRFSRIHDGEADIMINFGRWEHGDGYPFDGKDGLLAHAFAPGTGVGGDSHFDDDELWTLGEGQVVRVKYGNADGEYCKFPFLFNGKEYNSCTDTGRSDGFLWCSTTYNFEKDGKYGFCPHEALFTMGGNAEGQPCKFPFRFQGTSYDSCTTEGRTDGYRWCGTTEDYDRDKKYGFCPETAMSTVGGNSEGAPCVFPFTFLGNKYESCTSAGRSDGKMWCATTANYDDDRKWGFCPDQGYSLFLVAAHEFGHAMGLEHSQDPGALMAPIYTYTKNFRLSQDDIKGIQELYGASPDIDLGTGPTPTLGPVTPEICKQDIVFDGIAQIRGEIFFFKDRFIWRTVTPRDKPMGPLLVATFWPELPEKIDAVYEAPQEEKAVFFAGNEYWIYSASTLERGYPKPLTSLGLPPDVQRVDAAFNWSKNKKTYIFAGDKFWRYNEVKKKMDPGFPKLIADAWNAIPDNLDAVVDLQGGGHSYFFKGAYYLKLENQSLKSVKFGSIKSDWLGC
Description: as §1
as §2, with “MMP-2” for “MMP-10”, “902-MP)” for “910-MP)”, “Mca-Pro-Leu-Gly-Leu-Dpa(Dnp)-Ala-Arg-NH2” for “Mca-Arg-Pro-Lys-Pro-Val-Glu-Nval-Trp-Arg-Lys(Dnp)-NH2”, “ES-001),” for “ES-002),”

T2 sequence (P51512 120-607): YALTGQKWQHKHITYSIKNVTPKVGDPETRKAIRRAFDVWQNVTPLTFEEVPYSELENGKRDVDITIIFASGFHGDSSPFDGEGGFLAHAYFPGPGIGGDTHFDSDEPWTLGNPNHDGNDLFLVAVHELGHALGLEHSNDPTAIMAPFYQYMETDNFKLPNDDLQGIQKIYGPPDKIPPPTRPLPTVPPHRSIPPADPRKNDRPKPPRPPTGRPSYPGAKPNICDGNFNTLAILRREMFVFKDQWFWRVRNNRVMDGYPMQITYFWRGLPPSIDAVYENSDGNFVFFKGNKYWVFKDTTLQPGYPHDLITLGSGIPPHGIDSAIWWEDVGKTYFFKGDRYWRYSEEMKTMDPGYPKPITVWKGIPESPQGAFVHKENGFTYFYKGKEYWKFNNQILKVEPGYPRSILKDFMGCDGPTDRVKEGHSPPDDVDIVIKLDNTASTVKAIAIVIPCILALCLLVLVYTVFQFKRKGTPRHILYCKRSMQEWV
T1 sequence (P09238 99-476): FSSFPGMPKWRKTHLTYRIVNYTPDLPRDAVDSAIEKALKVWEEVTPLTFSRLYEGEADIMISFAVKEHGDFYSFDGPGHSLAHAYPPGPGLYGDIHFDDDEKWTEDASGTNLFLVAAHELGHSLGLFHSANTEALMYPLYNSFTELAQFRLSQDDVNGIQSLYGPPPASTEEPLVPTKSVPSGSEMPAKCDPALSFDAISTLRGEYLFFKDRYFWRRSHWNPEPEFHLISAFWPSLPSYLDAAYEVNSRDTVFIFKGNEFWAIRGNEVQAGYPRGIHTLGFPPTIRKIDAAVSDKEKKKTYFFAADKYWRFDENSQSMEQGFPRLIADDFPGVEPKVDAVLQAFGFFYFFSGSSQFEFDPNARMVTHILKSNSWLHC
T4 sequence (P14780 107-707 limits assumed): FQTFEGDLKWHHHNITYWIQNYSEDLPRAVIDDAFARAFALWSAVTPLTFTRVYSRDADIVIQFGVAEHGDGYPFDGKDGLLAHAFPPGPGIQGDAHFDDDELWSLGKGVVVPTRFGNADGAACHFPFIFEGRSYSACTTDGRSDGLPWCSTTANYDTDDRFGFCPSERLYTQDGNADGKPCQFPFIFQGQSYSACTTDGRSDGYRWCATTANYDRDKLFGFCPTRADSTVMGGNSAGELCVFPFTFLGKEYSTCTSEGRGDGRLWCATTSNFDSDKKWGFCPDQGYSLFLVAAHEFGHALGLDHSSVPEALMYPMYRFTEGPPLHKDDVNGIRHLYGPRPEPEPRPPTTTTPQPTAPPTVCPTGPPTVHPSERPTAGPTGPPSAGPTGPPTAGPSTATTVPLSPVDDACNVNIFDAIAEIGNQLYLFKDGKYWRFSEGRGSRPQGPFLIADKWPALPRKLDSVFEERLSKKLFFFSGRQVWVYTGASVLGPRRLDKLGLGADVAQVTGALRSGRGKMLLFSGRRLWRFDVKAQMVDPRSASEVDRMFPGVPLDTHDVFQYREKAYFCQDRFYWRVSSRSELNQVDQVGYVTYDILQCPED

Compound | IC50 (MMP-10) | IC50 (MMP-16) | IC50 (MMP-13) | IC50 (MMP-9) | IC50 (MMP-2)
O=C(O)[C@H]1[C@H](Cn2nnc3ccccc3c2=O)CC[C@@H]1C(=O)c1ccc(OCC2CCOCC2)cc1 (stereo in doubt) [Example 1, (+/−)-(1RS,2SR,5RS)-2-[(4-Oxo-1,2,3-benzotriazin-3(4H)-yl)methyl]-5-[4-(tetrahydro-2H-pyran-4-ylmethoxy)benzoyl]cyclopentanecarboxylic acid] | 120 nM | 1500 nM | 110 nM | 450 nM | 140 nM
O=C(O)[C@@H]1[C@@H](Cn2nnc3ccc(C(F)(F)F)cc3c2=O)CC[C@H]1C(=O)c1ccc(SCC2CCOCC2)cc1 (single isomer, unassigned) [Example 15, (+)-(1RS,2SR,5RS)-2-{[4-Oxo-6-(trifluoromethyl)-1,2,3-benzotriazin-3(4H)-yl]methyl}-5-{4-[(tetrahydro-2H-pyran-4-ylmethyl)sulphanyl]benzoyl}cyclopentanecarboxylic acid] | 9 nM | 760 nM | 220 nM | 150 nM | 330 nM
O=C(O)[C@H]1[C@H](Cn2nnc3ccc(C(F)(F)F)cc3c2=O)CC[C@@H]1C(=O)c1ccc(OCCC2CCOCC2)cc1 (stereo in doubt) [Example 10, (+/−)-(1RS ,2S R,5RS)-2-{[4-Oxo-6-(trifluoromethyl)-1,2,3-benzotriazin-3(4H)-yl]methyl}-5-{4-[2-(tetrahydro-2H-pyran-4-yl)ethoxy]benzoyl}cyclopentanecarboxylic acid] | 5100 nM | 1800 nM | 230 nM | 310 nM | 220 nM
O=C(O)[C@@H]1[C@@H](Cn2nnc3ccccc3c2=O)CC[C@H]1C(=O)c1ccc(OCC2CCOCC2)cc1 (stereo in doubt) [Example 2, (+)-(1RS,2SR,5RS)-2-[(4-Oxo-1,2,3-benzotriazin-3(4H)-yl)methyl]-5-[4-(tetrahydro-2H-pyran-4-ylmethoxy)benzoyl]cyclopentanecarboxylic acid] | 80 nM | 550 nM | 49 nM | 360 nM | 60 nM
O=C(O)[C@@H]1[C@@H](Cn2nnc3ccccc3c2=O)CC[C@H]1C(=O)c1ccc(OCCC2CCOCC2)cc1 (single isomer, unassigned) [Example 5, (+)-(1RS,2SR,5RS)-2-[(4-Oxo-1,2,3-benzotriazin-3(4H)-yl)methyl]-5-{4-[2-(tetrahydro-2H-pyran-4-yl)ethoxy]benzoyl}cyclopentanecarboxylic acid] | 13 nM | 940 nM | 67 nM | 460 nM | 44 nM
O=C(O)[C@H]1[C@H](Cn2nnc3ccccc3c2=O)CC[C@@H]1C(=O)c1ccc(OCCC2CCOCC2)cc1 (stereo in doubt) [Example 4, (+/−)-(1RS,2SR,5RS)-2-[(4-Oxo-1,2,3-benzotriazin-3(4H)-yl)methyl]-5-{4-[2-(tetrahydro-2H-pyran-4-yl)ethoxy]benzoyl}cyclopentanecarboxylic acid] | 170 nM | 7100 nM | 460 nM | 5000 nM | 360 nM
Cc1ccc2nnn(C[C@@H]3CC[C@H](C(=O)c4ccc(OCCC5CCOCC5)cc4)[C@H]3C(=O)O)c(=O)c2c1 (racemic) [Example 19, (+/−)-(1RS,2SR,5RS)-2-[(6-Methyl-4-oxo-1,2,3-benzotriazin-3(4H)-yl)methyl]-5-{4-[2-(letrahydro-2H-pyran-4-yl)ethoxy]benzoyl}cyclopentanecarboxylic acid] | 58 nM | 2500 nM | 590 nM | 960 nM | 930 nM
O=C(O)[C@@H]1[C@@H](Cn2nnc3ccc(C(F)(F)F)cc3c2=O)CC[C@H]1C(=O)c1ccc(OCCC2CCOCC2)cc1 (single isomer, unassigned) [Example 11, (+)-(1RS,2SR,5RS)-2-{[4-Oxo-6-(trifluoromethyl)-1,2,3-benzotriazin-3(4H)-yl]methyl}-5-{4-[2-(tetrahydro-2H-pyran-4-yl)ethoxy]benzoyl}cyclopentanecarboxylic acid] | 18 nM | 3800 nM | 470 nM | 660 nM | 510 nM
O=C(O)[C@H]1[C@H](Cn2nnc3ccc(C(F)(F)F)cc3c2=O)CC[C@@H]1C(=O)c1ccc(OCC2CCOCC2)cc1 (racemic) [Example 7, (+/−)-(1RS,2SR,5RS)-2-{[4-Oxo-6-(trifluoromethyl)-1,2,3-benzotriazin-3(4H)-yl]methyl}-5-[4-(tetrahydro-2H-pyran-4-ylmethoxy)benzoyl]cyclopentanecarboxylic acid] | 11000 nM | 830 nM | 140 nM | 120 nM | 380 nM
(+)-(1RS,2SR,5RS)-2-{[4-Oxo-6-(trifluoromethyl)-1,2,3-benzotriazin-3(4H)-yl]methyl}-5-[4-(tetra-hydro-2H-pyran-4-ylmethoxy)benzoyl]cyclopentanecarboxylic acid [Example 8] | 12 nM | 280 nM | 51 nM | 55 nM | 140 nM
Cc1ccc2nnn(C[C@H]3CC[C@@H](C(=O)c4ccc(OCCC5CCOCC5)cc4)[C@@H]3C(=O)O)c(=O)c2c1 (single isomer, unassigned) [Example 20, (+)-(1RS,2SR,5RS)-2-[(6-Methyl-4-oxo-1,2,3-benzotriazin-3(4H)-yl)methyl]-5-{4-[2-(tetrahydro-2H-pyran-4-yl)ethoxy]benzoyl}cyclopentanecarboxylic acid] | 31 nM | 3100 nM | 170 nM | 370 nM | 300 nM
